Laboratory results as given in patent US20250034150A1, “BTK INHIBITORS” (BIOGEN MA INC., priority 2021, published 2025).
pIC50: −log10 of the molar value. Structures can show the parent of a compound that is named as a salt.

Molecular target: T1, BTK (Homo sapiens, UniProt Q06187)
T1 construct: purchased Upstate 14-552
Experiment: In Vitro BTK Kinase Assay: Btk-PolyGAT-LS Assay
Type: biochemical
Conditions: active BTK enzyme 0.25 nM, polyGAT 100 nM, 30 minutes, TRF readout; read-out: In Vitro BTK Kinase Assay IC50 Score
Experimental: The purpose of the BTK in vitro assay is to determine compound potency against BTK through the measurement of IC50. Compound inhibition is measured after monitoring the amount of phosphorylation of a fluorescein-labeled polyGAT peptide (Invitrogen PV3611) in the presence of active BTK enzyme (Upstate 14-552), ATP, and inhibitor. The BTK kinase reaction was done in a black 96 well plate (costar 3694). For a typical assay, a 24 μL aliquot of a ATP/peptide master mix (final concentration; ATP […], polyGAT 100 nM) in kinase buffer (10 mM Tris-HCl pH 7.5, 10 mM MgCl2, 200 μM […], 5 mM DTT, 0.01% Triton X-100, and 0.2 mg/ml casein) is added to each well. Next, […] of a 4-fold, 40× compound titration in 100% DMSO solvent is added, followed by adding 15 μL of BTK enzyme mix in 1× kinase buffer (with a final concentration of 0.25 nM). The assay is incubated for 30 minutes before being stopped with 28 μL of a 50 mM EDTA solution. Aliquots (5 uL) of the kinase reaction are transferred to a low volume white 384 well plate (Coming 3674), and 5 μL of a 2× detection buffer (Invitrogen PV3574, with 4 nM Tb—PY20 antibody, Invitrogen PV3552) is added. The plate is covered and incubated for 45 minutes at room temperature. Time resolved fluorescence (TRF) on Molecular Devices M5 (332 nm excitation; 488 nm emission; 518 nm fluorescein emission) is measured. IC50 values are calculated using a four parameter fit with 100% enzyme activity determined from the DMSO control and 0% activity from the EDTA control.

T1 sequence (Q06187 whole entry): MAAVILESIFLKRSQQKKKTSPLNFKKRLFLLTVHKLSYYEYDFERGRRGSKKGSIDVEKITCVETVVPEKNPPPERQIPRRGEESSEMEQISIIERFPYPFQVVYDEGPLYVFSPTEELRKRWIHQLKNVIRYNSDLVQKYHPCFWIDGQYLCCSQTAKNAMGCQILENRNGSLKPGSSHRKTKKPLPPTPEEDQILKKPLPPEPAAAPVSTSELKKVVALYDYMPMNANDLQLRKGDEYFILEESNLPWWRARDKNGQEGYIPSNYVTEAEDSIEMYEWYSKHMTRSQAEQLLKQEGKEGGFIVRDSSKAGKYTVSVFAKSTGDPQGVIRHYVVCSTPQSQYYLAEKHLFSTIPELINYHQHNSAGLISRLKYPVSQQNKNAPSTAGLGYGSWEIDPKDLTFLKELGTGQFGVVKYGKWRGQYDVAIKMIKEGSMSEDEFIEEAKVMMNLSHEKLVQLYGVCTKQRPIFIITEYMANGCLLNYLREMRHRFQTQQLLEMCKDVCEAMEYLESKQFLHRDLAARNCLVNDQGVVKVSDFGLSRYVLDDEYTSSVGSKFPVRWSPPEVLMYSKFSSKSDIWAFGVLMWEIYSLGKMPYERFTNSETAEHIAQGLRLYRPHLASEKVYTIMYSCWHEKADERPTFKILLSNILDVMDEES

Row | Compound | pIC50
1 | CC(C)(C)c1nc(C(=O)NCc2ccc(-c3nc(N4CCC4)cn4nccc34)cc2)no1 [Example 134, N-(4-(6-(azetidin-1-yl)pyrazolo[1,5-a]pyrazin-4-yl)benzyl)-5-(tert-butyl)-1,2,4-oxadiazole-3-carboxamide] | 8.00 to 9.00
2 | Cc1cc(-c2nc(-c3cnn(C4COC4)c3)cn3nccc23)ccc1CNC(=O)c1noc(C(C)(C)C)n1 [Example 55, 5-(tert-butyl)-N-(2-methyl-4-(6-(1-(oxetan-3-yl)-1H-pyrazol-4-yl)pyrazolo[1,5-a]pyrazin-4-yl)benzyl)-1,2,4-oxadiazole-3-carboxamide] | > 9.00
3 | Cn1cc(-c2cn3nccc3c(N3CCCC(CNC(=O)c4noc(C(C)(C)C)n4)CC3)n2)cn1 (stereo not shown) [Example 166, 5-(tert-butyl)-N-((1-(6-(1-methyl-1H-pyrazol-4-yl)pyrazolo[1,5-a]pyrazin-4-yl)azepan-4-yl)methyl)-1,2,4-oxadiazole-3-carboxamide] | 6.00 to 8.00
4 | Cn1cc(-c2cc(-c3ccc(CNC(=O)c4cn(C(C)(C)C)nn4)cc3)n3cnnc3c2)cn1 [Example 75, 1-(tert-butyl)-N-(4-(7-(1-methyl-1H-pyrazol-4-yl)-[1,2,4]triazolo[4,3-a]pyridin-5-yl)benzyl)-1H-1,2,3-triazole-4-carboxamide] | 6.00 to 8.00
5 | Cn1cc(-c2cn3nccc3c(-c3cc(F)c(CNC(=O)c4ccn(C(C)(C)C)n4)cc3F)n2)cn1 [Example 96, 1-(tert-butyl)-N-(2,5-difluoro-4-(6-(1-methyl-1H-pyrazol-4-yl)pyrazolo[1,5-a]pyrazin-4-yl)benzyl)-1H-pyrazole-3-carboxamide] | 6.00 to 8.00
6 | CC(C)(C)n1ccc(C(=O)NCc2ccc(-c3nc(N4CCOCC4)cn4nccc34)cc2)n1 [Example 28, 1-(tert-butyl)-N-(4-(6-morpholinopyrazolo[1,5-a]pyrazin-4-yl)benzyl)-1H-pyrazole-3-carboxamide] | 5.00 to 6.00
7 | CN1CCN(c2cn3nccc3c(-c3ccc(CNC(=O)c4coc(C(C)(C)C)n4)c(F)c3)n2)CC1 [Example 129, 2-(tert-butyl)-N-(2-fluoro-4-(6-(4-methylpiperazin-1-yl)pyrazolo[1,5-alpyrazin-4-yl)benzyl)oxazole-4-carboxamide trifluoroacetate] | 6.00 to 8.00
8 | C[C@H]1CN(c2nc(-c3cnn(C)c3)cn3nccc23)CC[C@H]1CNC(=O)c1noc(C2(C)CC2)n1 (single isomer, unassigned) [Example 147] | 6.00 to 8.00
9 | Cn1cc(-c2cn3nccc3c(N3CCC(C)(CNC(=O)c4nnn(C(C)(C)C)n4)C3)n2)cn1 (stereo not shown) [Example 48, 2-(tert-butyl)-N-((3-methyl-1-(6-(1-methyl-1H-pyrazol-4-yl)pyrazolo[1,5-a]pyrazin-4-yl)pyrrolidin-3-yl)methyl)-2H-tetrazole-5-carboxamide] | 6.00 to 8.00
10 | Cn1cc(-c2cn3nccc3c(N3CCC(C)(CNC(=O)c4noc(C5(C)CC5)n4)C3)n2)cn1 (stereo not shown) [Example 51, N-((3-methyl-1-(6-(1-methyl-1H-pyrazol-4-yl)pyrazolo[1,5-a]pyrazin-4-yl)pyrrolidin-3-yl)methyl)-5-(1-methylcyclopropyl)-1,2,4-oxadiazole-3-carboxamide] | 5.00 to 6.00
11 | Cc1cc(-c2nc(-c3cnn(C)c3)cn3nccc23)ccc1CN1CCN(CC2COC2)CC1=O [Example 32, 1-(2-methyl-4-(6-(1-methyl-1H-pyrazol-4-yl)pyrazolo[1,5-a]pyrazin-4-yl)benzyl)-4-(oxetan-3-ylmethyl)piperazin-2-one] | 6.00 to 8.00
12 | CC(C)(C)c1nc(C(=O)NCc2ccc(-c3nc(N4CCOCC4)cn4nccc34)cc2F)co1 [Example 125, 2-(tert-butyl)-N-(2-fluoro-4-(6-morpholinopyrazolo[1,5-a]pyrazin-4-yl)benzyl)oxazole-4-carboxamide] | 6.00 to 8.00
13 | Cn1cc(-c2cn3nccc3c(N3CCC4(CC(NC(=O)c5noc(C(C)(C)C)n5)C4)C3)n2)cn1 (stereo not shown) [Example 52, 5-(tert-butyl)-N-(6-(6-(1-methyl-1H-pyrazol-4-yl)pyrazolo[1,5-a]pyrazin-4-yl)-6-azaspiro[3.4]octan-2-yl)-1,2,4-oxadiazole-3-carboxamide] | 5.00 to 6.00
